Measurements from patent publication US8735444B2, “Fluorinated rhodamines as photostable fluorescent dyes for labelling and imaging techniques” (Max-Planck-Gesellschaft zur Foerderung der Wissenschaften …, priority 2009, dated 2014).
Read-outs that look alike come from different tables or passages of the source. Marks after values point to notes of the source that are not given here.

Assays:
[1] = Spectral properties of the fluorinated rhodamines (absorption, emission, quantum yield, lifetime); format: physicochemical
Description: Extinction coefficients (of the long wavelength maximum) which are lower than ca. 8×10^4 M^−1 cm^−1 indicate the presence of the closed non-fluorescent form.

[2] = test system: living mammalian cells (PtK2); assay: Membrane-permeation experiments in living cells, epifluorescence microscope; format: cell-based; details: for Structures stained in living cells: 15 minutes
Description: FIG. 9. Membrane-permeation experiments of the presented dyes. Living mammalian cells (PtK2) were incubated for 15 minutes with a 50 μg dye/ml solution. The subcellular localization of the dye was imaged in an epifluorescence microscope. A: 46-H—CH2 CF3—H—H (16); B: 42-COOH (15); C: 23; D: 37-Me-Me-H (27); E: 42-H (14)-methylester; F: 33-H—H (18).
The most important prerequisite for fluorophores used in these labeling strategies is that sufficient amounts of it need to pass cellular membrane(s) to reach the target protein. In order to asses the permeability of the cell membrane to the fluorescent dyes described in the presented invention, living mammalian cells (PtK2) previously grown overnight on cover slips, were first subjected to either 500 μg dye/ml or 50 μg dye/ml in growth medium for 15 minutes. (The amount of dye used for labeling of SNAP-fusion proteins is below 5 μg dye/ml.) Then, the cells were washed with growth medium (without dye) for 15 minutes, and imaged using an epifluorescence microscope.

[3] = design: ε × 10^−4: unit not given beside the values; details: cited from earlier work
[4] = value for the closed form, methanol
[5] = a + b (aqueous buffer at pH 7 + methanol)
[6] = adding methanol to an aqueous buffer

Compound	ABSORPTION ε ([1]; aqueous buffer at pH 7)	ABSORPTION λMAX ([1]; aqueous buffer at pH 7)	EMISSION λMAX ([1]; aqueous buffer at pH 7)	ΦFL ([1]; aqueous buffer at pH 7)	τFL ([1]; aqueous buffer at pH 7)	Structures stained in living cells ([2]; 500 μg dye/ml)	ABSORPTION λMAX ([1]; methanol)	EMISSION λMAX ([1]; methanol)	Structures stained in living cells ([2]; 50 μg dye/ml)	ABSORPTION ε ([1]; methanol)	also measured
N,N-Bis(2,2,2-trifluoroethyl)rhodamine [Compound 14]	81000 M⁻¹ cm⁻¹	499^a nm	522^ nm	0.88	3.9 ns	Nearly no stain visible.	–	–	–	–	–
CN(CC(F)(F)F)c1cc2c(cc1F)C1(OC(=O)c3ccccc31)c1cc(F)c(N(C)CC(F)(F)F)cc1O2 [Compound 25, 2,7-Difluoro-N,N-dimethyl-N,N-bis(2,2,2-trifluoromethyl)-rhodamine]	–	–	–	–	–	Only dim stain visible.	–	–	–	–	fluorescence efficiency of the open acidic form ([1]; acidic solutions): relatively low fluorescence efficiency; ΦFL ([1]; measured at pH 1): (0.20)^1; τFL ([1]; measured at pH 1): (1.2)^1 ns; ABSORPTION ε ([1]; measured at pH 1, aqueous): (3.2)^1a (M^−1 cm^−1) × 10^−4; ABSORPTION λMAX ([1]; measured at pH 1, aqueous): 528 nm; EMISSION λMAX ([1]; measured at pH 1, aqueous): (557)^1a nm; colour of solutions ([1]; methanol, water and neutral buffers): colorless solutions; ABSORPTION λMAX [1, 4]: 300 nm
O=C(O)c1ccc2c(c1)C1(OC2=O)c2ccc(NCC(F)(F)F)cc2Oc2cc(NCC(F)(F)F)ccc21 [15 (42-COOH), 5′-Carboxy-N,N′-bis(2,2,2-trifluoroethyl)rhodamine]	85000 M⁻¹ cm⁻¹	501 nm	525 nm	0.95	4.1 ns	–	500 nm	524 nm	Dim cytoplasmatic stain with dots	–	Structures stained in living cells ([2]; 500 μg dye/ml, listed as 42-COOH (15)): Bright cytoplasmatic stain visible.
5′,(6′)-Carboxy-2,7-difluoro-N,N″-bis(2,2,2-trifluoroethyl)-4,5-disulforhodamine [Compound 21]	–	509 nm	533 nm	0.86	3.3 ns	Cytoplasmatic and mitochondrial	517 nm	541 nm	Dim cytoplasmatic stain with dots	42000 M⁻¹ cm⁻¹	–
5′ (6′)-Carboxy-2,7-difluoro-4,5-disulforhodamine [Compound 13]	–	490 nm	514 nm	0.97	4.1 ns	Nearly no stain visible.	502 nm	517 nm	Dim cytoplasmatic stain with dots	32000 M⁻¹ cm⁻¹	–
5′(6′)-Carboxy-2,7-difluoro-N,N′-dimethylrhodamine [Compound 24]	–	515^a, 515^b nm	543 nm	0.86	4.1 ns	Cellular stain visible; bright	515^a, 515^b nm	538 nm	–	56000 M⁻¹ cm⁻¹	–
Cl.N=c1ccc2c(-c3ccccc3C(=O)O)c3ccc(N)cc3oc-2c1 [Compound 1, rhodamine 110]	–	–	–	–	–	–	–	–	–	–	Φfl ([3]; basic EtOH): 0.92; λem ([3]; basic EtOH): 524 nm; ε × 10^−4 ([3]; water, pH = 7): 8.3; λem ([3]; water, pH = 7): 520** nm; λmax ([3]; water, pH = 7): 496 nm
5′ (6′)-Carboxy-2,7-difluoro-N,N′-dimethyl-N,N-bis(2,2,2-trifluoroethyl)rhodamine [Compound 26]	–	–	–	–	–	Cellular stain visible; bright	–	–	–	–	ABSORPTION λMAX [1, 5]: 523 nm; ABSORPTION λMAX [1, 4]: 291 nm
5(6)-carboxyfluorescein [Compound 7]	–	–	–	–	–	–	–	–	–	–	ε × 10^−4 ([3]; H2O, pH = 9): 7.8^4*; λem ([3]; H2O, pH = 9): 517^4* nm; λmax ([3]; H2O, pH = 9): 492^4* nm
CN(C)c1cc2c(cc1F)C1(OC(=O)c3ccccc31)c1cc(F)c(N(C)C)cc1O2 [Compound 27, 2,7-Difluoro-N,N,N′,N′-tetramethylrhodamine]	50000 M⁻¹ cm⁻¹	554 nm	586 nm	0.02	3.3 ns	Red cytoplasmatic and mitochondrial	546 nm	576 nm	–	–	fluorescence in aqueous buffer ([1]; aqueous buffer): nearly non-fluorescent; fluorescence signal inside the living cells ([2]; compared with aqueous buffer, Example 12, FIG. 9D): considerably stronger
O=C1OC2(c3cc(F)c(NCC(F)(F)F)cc3Oc3cc(NCC(F)(F)F)c(F)cc32)c2ccccc21 [Compound 18, 2,7-Difluoro-N,N′-bis(2,2,2-trifluoroethyl)rhodamine]	–	494 nm	521 nm	1.00	3.8 ns	–	500 nm	519 nm	Dim cytoplasmatic stain with bright	41000 M⁻¹ cm⁻¹	ABSORPTION λMAX [1, 4]: (292)^2b nm
CNc1cc2c(cc1F)C1(OC(=O)c3ccccc31)c1cc(F)c(NC)cc1O2 [Compound 23, 2,7-Difluoro-N,N′-dimethylrhodamine]	–	513 nm	539 nm	0.87	4.0 ns	Mitochondrial stain visible. Bright	511 nm	537 nm	Dim cytoplasmatic stain with dots	56000 M⁻¹ cm⁻¹	–
2,7-Difluoro-5′(6′)-methoxycarbonyl-N,N,N′,N′-tetramethyl-rhodamine [Compound 28]	31000 M⁻¹ cm⁻¹	525 nm	554 nm	–	–	Red cytoplasmatic and mitochondrial	–	589 nm	–	–	ABSORPTION λMAX [1, 5]: 558 nm; bathochromic shift in absorption maximum [1, 6]: 23 nm; bathochromic shift in emission maximum [1, 6]: 35 nm
O=C(O)c1ccc2c(c1)C1(OC2=O)c2ccc(NCC(F)(F)F)cc2Oc2cc(NCC(F)(F)F)ccc21 [15 (43-COOH), 6′-carboxy-N,N′-bis(2,2,2-trifluoroethyl)rhodamine]	88000 M⁻¹ cm⁻¹	501 nm	523 nm	0.93	–	–	497 nm	522 nm	–	–	Structures stained in living cells ([2]; 500 μg dye/ml, listed as 43-COOH (15)): Nearly no stain visible.
5′ (6′)-carboxy-2,7-difluoro-N,N′-bis(2,2,2-trifluoroethyl)-rhodamine [Compound 19]	53000 M⁻¹ cm⁻¹	496 nm	522 nm	0.89	3.8 ns	–	498 nm	520 nm	Dim cellular stain with dots	–	–
Nc1cc2c(cc1F)C1(OC(=O)c3ccccc31)c1cc(F)c(N)cc1O2 [Compound 10, 2,7-Difluororhodamine]	–	494 nm	520 nm	0.87	3.9 ns	High background staining visible.	498 nm	522 nm	–	41000 M⁻¹ cm⁻¹	–
5′(6′)-Carboxy-2,7-difluororhodamine [Compound 11]	–	496 nm	522 nm	0.92	4.0 ns	Dye exclusion! No dye within cell	498 nm	523 nm	–	50000 M⁻¹ cm⁻¹	–
